According to article PMC2771219 (Journal of molecular biology, 2009):
pKd: −log10 of the molar value.

Biological target: UDP-galactopyranose mutase (UGM) (Klebsiella pneumoniae, UniProt Q48485, R384G)
Experiment: fluorescence polarization
Format: binding

UDP-fluorescein
pKd: 7.05
